Results taken from patent US20090325964A1, “Piperazine Metabotropic Glutamate Receptor 5 (MGLUR5) Negative Allosteric Modulators For Anxiety/Depression” (Wyeth, priority 2008, published 2009).
Read-outs that look alike come from different tables or passages of the source.

Target: T1, rat mGluR5 receptor (Rattus norvegicus, UniProt P31424)
T1 construct: expressed in transfected cells; host or cells: HEK-293
Experiment: [3H]-MPEP displacement binding assay, HEK-293 cell membranes expressing rat mGluR5
Details: for Ki: read-out: Median Ki; for inhibition at 10 µM: 1 h, single point, @ 10 μm compound, Table 1A, read-out: PCT INHIB (%) @ 10 μm
Experimental: MGluR5 expressing HEK-293 cells were scraped off a plate, transferred to centrifuge tubes and washed twice by centrifugation (2000 rpm for 10 minutes, at 4° C.) in buffer (50 mM Tris pH 7.5). The resulting pellets were aliquoted and stored at minus 80° C. On the day of assay, the cells were thawed on ice and re-suspended in buffer. The binding assay was performed in a 96 well microtiter plate in a total volume of […]. Non-specific binding was determined in the presence of 10 μM MPEP. The binding reaction included a final radioligand [^3H]-MPEP concentration of 4 nM and 12-25 μg membrane protein per well. Following a 60 minute incubation at room temperature, the reaction was terminated by the addition of ice cold buffer and rapid filtration through a GF/B filter that had been presoaked for 30 minutes in 0.5% PEI. Compounds were initially tested in a single point assay to determine percent inhibition at 10 μM.
Percent inhibition and Ki values were generated by GraphPad Prism and Excel Fit. IC50 values were calculated using GraphPad by fitting to a 1 or 2 site-binding model.
where [L] is the concentration of free radioligand and Kd is the dissociation constant of radioligand for the receptor.

[1] = [3H]-MPEP displacement, rat mGluR5

T1 sequence (P31424 21-1203): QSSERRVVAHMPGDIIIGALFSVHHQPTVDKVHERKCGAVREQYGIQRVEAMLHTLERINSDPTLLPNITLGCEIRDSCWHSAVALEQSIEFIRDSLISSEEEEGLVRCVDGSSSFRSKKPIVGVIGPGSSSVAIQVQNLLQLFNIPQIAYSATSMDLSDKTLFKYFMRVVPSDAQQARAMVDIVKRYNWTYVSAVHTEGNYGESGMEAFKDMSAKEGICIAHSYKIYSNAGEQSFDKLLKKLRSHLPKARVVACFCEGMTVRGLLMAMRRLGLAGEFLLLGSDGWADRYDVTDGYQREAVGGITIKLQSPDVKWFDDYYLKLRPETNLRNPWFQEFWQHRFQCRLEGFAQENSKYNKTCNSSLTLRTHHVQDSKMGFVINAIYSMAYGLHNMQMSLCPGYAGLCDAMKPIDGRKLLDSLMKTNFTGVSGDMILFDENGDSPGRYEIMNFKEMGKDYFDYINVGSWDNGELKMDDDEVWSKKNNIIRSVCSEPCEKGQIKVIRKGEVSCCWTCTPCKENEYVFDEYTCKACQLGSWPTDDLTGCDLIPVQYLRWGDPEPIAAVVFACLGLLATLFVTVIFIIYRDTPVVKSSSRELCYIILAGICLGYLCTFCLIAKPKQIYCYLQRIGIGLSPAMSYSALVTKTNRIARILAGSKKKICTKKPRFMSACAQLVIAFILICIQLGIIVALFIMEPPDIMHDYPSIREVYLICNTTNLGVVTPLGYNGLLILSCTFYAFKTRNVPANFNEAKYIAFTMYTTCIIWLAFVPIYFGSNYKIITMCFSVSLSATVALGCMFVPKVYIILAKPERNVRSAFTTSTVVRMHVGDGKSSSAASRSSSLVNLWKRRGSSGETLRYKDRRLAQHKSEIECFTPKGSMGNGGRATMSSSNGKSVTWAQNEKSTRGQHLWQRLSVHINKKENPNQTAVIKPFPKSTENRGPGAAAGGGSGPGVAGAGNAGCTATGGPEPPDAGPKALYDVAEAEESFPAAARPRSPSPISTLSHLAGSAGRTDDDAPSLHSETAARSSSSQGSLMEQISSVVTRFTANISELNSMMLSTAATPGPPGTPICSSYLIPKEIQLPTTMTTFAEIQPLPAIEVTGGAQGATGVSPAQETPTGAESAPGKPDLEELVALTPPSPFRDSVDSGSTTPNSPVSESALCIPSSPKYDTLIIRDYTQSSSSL

Row | Molecule | Ki [1] [nM] | Ki ([3H]-MPEP displacement, rat mGluR5 membranes) [nM] | inhibition at 10 µM [%] | Ki [nM]
1 | 1-(2-chlorobenzyl)-4-[4-methoxy-3-(pyridin-2-ylethynyl)benzoyl]piperazin-2-one [Compound 332] | 32 | – | – | –
2 | 1-(3-chlorobenzyl)-4-[4-methoxy-3-(pyridin-2-ylethynyl)benzoyl]piperazin-2-one [Compound 333] | 34 | – | – | –
3 | 1-(3-chloropyridin-2-yl)-4-{4-methoxy-3-[(3-nitrophenyl)ethynyl]benzoyl}piperazine [Compound 345] | 3210 | – | – | –
4 | 1-(4-chlorobenzyl)-4-[4-methoxy-3-(pyridin-2-ylethynyl)benzoyl]piperazin-2-one [Compound 334] | 54 | – | – | –
5 | 1-(4-methylpyridin-2-yl)-4-{[3-(pyridin-2-ylethynyl)-4-(trifluoromethyl)phenyl]carbonyl}piperazine [Compound 367] | – | 8 | – | –
6 | 2-{4-[4-methoxy-3-(pyridin-2-ylethynyl)benzoyl]piperazin-1-yl}-1,3-benzothiazole [Compound 256] | 43 | – | – | –
7 | Cc1ccc(C#Cc2cccc(C(=O)N3CCN(c4ccccn4)CC3)c2)cc1 [Compound 1, 1-{3-[(4-methylphenyl)ethynyl]benzoyl}-4-pyridin-2-ylpiperazine] | – | – | 55 | –
8 | O=C(c1cccc(C#Cc2ccc(Cl)cc2)c1)N1CCN(c2ccccn2)CC1 [Compound 3, 1-{3-[(4-chlorophenyl)ethynyl]benzoyl}-4-pyridin-2-ylpiperazine] | – | – | 45 | –
9 | Cc1ccccc1C#Cc1cccc(C(=O)N2CCN(c3ccccn3)CC2)c1 [Compound 4, 1-{3-[(2-methylphenyl)ethynyl]benzoyl}-4-pyridin-2-ylpiperazine] | – | – | 0 | –
10 | O=C(c1cccc(C#Cc2ccccc2C(F)(F)F)c1)N1CCN(c2ccccn2)CC1 [Compound 5, 1-pyridin-2-yl-4-(3-{[2-(trifluoromethyl)phenyl]ethynyl}benzoyl)piperazine] | – | – | 0 | –
11 | O=C(c1cccc(C#Cc2cccc(O)c2)c1)N1CCN(c2ccccn2)CC1 [Compound 6, 3-({3-[(4-pyridin-2-ylpiperazin-1-yl)carbonyl]phenyl}ethynyl)phenol] | – | – | 75 | 1120
12 | Cn1cncc1C#Cc1cccc(C(=O)N2CCN(c3ccccn3)CC2)c1 [Compound 7, 1-{3-[(1-methyl-1H-imidazol-5-yl)ethynyl]benzoyl}-4-pyridin-2-ylpiperazine] | – | – | 0 | –
13 | O=C(c1cccc(C#CC2=CCCCC2)c1)N1CCN(c2ccccn2)CC1 [Compound 8, 1-[3-(cyclohex-1-en-1-ylethynyl)benzoyl]-4-pyridin-2-ylpiperazine] | – | – | 78 | 1220
14 | O=C(c1cccc(C#CC2(O)CCCC2)c1)N1CCN(c2ccccn2)CC1 [Compound 9, 1-({3-[(4-pyridin-2-ylpiperazin-1-yl)carbonyl]phenyl}ethynyl)cyclopentanol] | – | – | 0 | –
15 | Nc1cccc(C#Cc2cccc(C(=O)N3CCN(c4ccccn4)CC3)c2)c1 [Compound 11, 3-({3-[(4-pyridin-2-ylpiperazin-1-yl)carbonyl]phenyl}ethynyl)aniline] | – | – | 85 | –
16 | O=C(c1cccc(C#CC2(O)CCCCC2)c1)N1CCN(c2ccccn2)CC1 [Compound 12, 1-({3-[(4-pyridin-2-ylpiperazin-1-yl)carbonyl]phenyl}ethynyl)cyclohexanol] | – | – | 0 | –

Row | Molecule | Ki [1] [nM] | Ki ([3H]-MPEP displacement, rat mGluR5 membranes) [nM] | inhibition at 10 µM [%] | Ki [nM]
17 | O=C(c1cccc(C#CC(O)c2ccccc2)c1)N1CCN(c2ccccn2)CC1 (centres unmarked) [Compound 13, 1-phenyl-3-{3-[(4-pyridin-2-ylpiperazin-1-yl)carbonyl]phenyl}prop-2-yn-1-ol] | – | – | 15 | –
18 | COc1ccc(C(=O)N2CCN(c3ccccn3)CC2)cc1C#CC1=CCCCC1 [Compound 15, 1-[3-(cyclohex-1-en-1-ylethynyl)-4-methoxybenzoyl]-4-pyridin-2-ylpiperazine] | – | – | 76 | 236
19 | COc1ccc(C(=O)N2CCN(c3ccccn3)CC2)cc1C#CCc1ccccc1 [Compound 16, 1-[4-methoxy-3-(3-phenylprop-1-yn-1-yl)benzoyl]-4-pyridin-2-ylpiperazine] | – | – | 84 | 43
20 | COc1cccc(C#Cc2cc(C(=O)N3CCN(c4ccccn4)CC3)ccc2OC)c1 [Compound 17, 1-{4-methoxy-3-[(3-methoxyphenyl)ethynyl]benzoyl}-4-pyridin-2-ylpiperazine] | – | – | 91 | 51
21 | COc1ccc(C(=O)N2CCN(c3ccccn3)CC2)cc1C#Cc1cccc(C)c1 [Compound 18, 1-{4-methoxy-3-[(3-methylphenyl)ethynyl]benzoyl}-4-pyridin-2-ylpiperazine] | – | – | 99 | 6
22 | COc1ccc(C(=O)N2CCN(c3ccccn3)CC2)cc1C#Cc1cccc(Cl)c1 [Compound 19, 1-{3-[(3-chlorophenyl)ethynyl]-4-methoxybenzoyl}-4-pyridin-2-ylpiperazine] | – | – | 97 | 6
23 | COc1cc(C#Cc2cc(C(=O)N3CCN(c4ccccn4)CC3)ccc2OC)cc(OC)c1 [Compound 20, 1-{3-[(3,5-dimethoxyphenyl)ethynyl]-4-methoxybenzoyl}-4-pyridin-2-ylpiperazine] | – | – | 0 | –
24 | COc1ccc(C(=O)N2CCN(c3ccccn3)CC2)cc1C#Cc1cc(F)cc(F)c1 [Compound 21, 1-{3-[(3,5-difluorophenyl)ethynyl]-4-methoxybenzoyl}-4-pyridin-2-ylpiperazine] | – | – | 79 | 1940
25 | COc1ccc(C(=O)N2CCN(c3ccccn3)CC2)cc1C#Cc1cc(C)ccc1C [Compound 22, 1-{3-[(2,5-dimethylphenyl)ethynyl]-4-methoxybenzoyl}-4-pyridin-2-ylpiperazine] | – | – | 43 | –
26 | COc1ccc(C(=O)N2CCN(c3ccccn3)CC2)cc1C#Cc1cc(C)c(C)cc1C [Compound 23, 1-{4-methoxy-3-[(2,4,5-trimethylphenyl)ethynyl]benzoyl}-4-pyridin-2-ylpiperazine] | – | – | 0 | –
27 | Cc1ccc(C(=O)N2CCN(c3ccccn3)CC2)cc1C#CC1=CCCCC1 [Compound 24, 1-[3-(cyclohex-1-en-1-ylethynyl)-4-methylbenzoyl]-4-pyridin-2-ylpiperazine] | – | – | 71 | 1290
28 | Cc1ccc(C(=O)N2CCN(c3ccccn3)CC2)cc1C#CCc1ccccc1 [Compound 25, 1-[4-methyl-3-(3-phenylprop-1-yn-1-yl)benzoyl]-4-pyridin-2-ylpiperazine] | – | – | 63 | 452
29 | COc1cccc(C#Cc2cc(C(=O)N3CCN(c4ccccn4)CC3)ccc2C)c1 [Compound 26, 1-{3-[(3-methoxyphenyl)ethynyl]-4-methylbenzoyl}-4-pyridin-2-ylpiperazine] | – | – | 86 | 322
30 | Cc1ccc(C(=O)N2CCN(c3ccccn3)CC2)cc1C#Cc1cccc(C(F)(F)F)c1 [Compound 27, 1-(4-methyl-3-{[3-(trifluoromethyl)phenyl]ethynyl}benzoyl)-4-pyridin-2-ylpiperazine] | – | – | 81 | 469
31 | Cc1ccc(C(=O)N2CCN(c3ccccn3)CC2)cc1C#Cc1cccc(Cl)c1 [Compound 28, 1-{3-[(3-chlorophenyl)ethynyl]-4-methylbenzoyl}-4-pyridin-2-ylpiperazine] | – | – | 79 | 76
